In patent US11964943B2, “3,5-diarylidenyl-n-substituted-piperid-4-one-derived inhibitors of Stat3 pathway activity and uses thereof” (priority 2017, dated 2024):
Entries after “also recorded” stand apart in the source; their conditions may differ.

Key:
pStat3^Tyr705 = assay: Immunoblotting of phosphorylated Stat3 in cancer cells; format: cell-based, human; details: for persistence of pStat3 inhibition post treatment: DU145 and A549, after 18 h treatment and drug removal; for inhibition of Stat3 tyrosine (705) phosphorylation (pStat3): DU145 and A549 cells with constitutively active Stat3, 18 h; for concentrations at which pSTAT3 is inhibited: cells with persistent Stat3 activation
Protocol: (§1) Whole cell lysates were prepared by incubation of harvested, trypsinised cells with CelLytic™ lysis buffer (Sigma-Aldrich) supplemented with 1× protease and 1× phosphatase inhibitors (Roche). Protein quantification was carried out using a protein assay kit (Bio-Rad). 40 μg of the lysates were denatured by heating for 5 min at 95° C. in sample buffer containing 100 mM Tris-Cl (pH 6.8), 4% SDS, 10% 2-mercaptoethanol, 20% glycerol, and 0.02% bromophenol blue. Precision Plus Protein Dual colour standards (Bio-Rad) were used as a molecular weight reference. For the detection of STAT3, pSTAT3, α/β tubulin, cleaved PARP, Bcl-2, Bcl-xL, FANCD2, BRCA1, EME1 and MUS81, proteins were separated on a NuPAGE 7% Tris-acetate gel (Life Technologies) and subsequently transferred to polyvinylidene difluoride membranes (Immobilon®-P transfer membrane; Millipore). […] Membranes were blocked for 1 h at ambient temperature in a blocking buffer containing 5% w/v Bovine Serum Albumin (BSA; Sigma-Aldrich) in 1×TBS, 0.1% Tween-20. All proteins were identified by incubation in a 1:1000 dilution of the respective polyclonal antibodies (Cell signaling) in blocking buffer overnight at 4° C. and subsequent incubation for 1 h with an anti-rabbit or anti-mouse secondary antibody (Cell signalling) at a dilution of 1:1000. The α/β tubulin (1:2000; Cell Signaling) and the anti-phospho-histone H2AX Antibody (1:500; Millipore) were used in the denoted dilutions. Antibody binding was visualized by enhanced chemiluminescence (Amersham) on autoradiography film (Kodak-X-Omat). Alternatively Images were captured by the GelDoc-It Imaging System Fusion Fx7 (Vilber Lourmat, Germany).
as §1, with “Immunoblotting. Whole” for “Whole”, “CelLytic™ M” for “CelLytic™”, “pSTAT3, a/0” for “pSTAT3, α/β”, “in 1×TBS” for “in 1×TBS,”, “(Cell signalling)” for “(Cell signaling)”

[1] = system: HCT116-oxaliplatin resistant cells; assay: MTT growth inhibition and Chou-Talalay combination index with oxaliplatin; format: cell-based; design: key to Effect: affected fraction (Fa) from MTT absorbance, 0-1; details: for CI values in combination with oxaliplatin: fixed and non-fixed ratio combination treatments, in many instances
Protocol: The software Calcusyn was utilized for analysis of drug interactions using the Chou-Talalay combination index method (Chou, T.-C. Drug Combination Studies and Their Synergy Quantification Using the Chou-Talalay Method. [Cancer Res. 70, 440-446 (2010)]
The affected fractions were calculated from the SRB or MTT assay absorbance values and were registered to derive the respective CI values and isobolograms. A CI value of less than 1 (one) indicates synergy.
MIT assay. Individual drug treatments and combinations were carried out as with the SRB assay. The MTT assay was carried out as previously (see Cytotoxicity studies sections) with the difference that it was completed in 96 h.

[2] = system: HCT116-oxaliplatin resistant spheroids; assay: CellTiter-Glo 3D cell viability assay, HCT116-oxaliplatin resistant spheroids; format: cell-based; details: 96 h exposure, 3D CellTiter-Glo
Protocol: For cell spheroid formation, HCT116-oxaliplatin resistant cells, A2780-cisplatin resistant cells, and HT1080 cells were seeded in Corning® Spheroid opaque-walled 96 well Microplates (ultra-low attachment; Nuclon™ Sphera™, Thermofisher) at densities of 2000 cells/well in 100 μl of cell solution and allowed to grow for 4 days, before any manipulation.
Spheroid cells were treated by adding 100 μl of 2-fold the desired compound concentration and incubated at 37° C. for 96 h. At the end of drug incubation, both the plates and the CellTitre-Glo® reagent (previously thawn overnight in the fridge) were equilibrated at room temperature for at least 30 min. Subsequently, 100 μl of cell solution were carefully removed from each well, without disrupting the spheroid and equal volume of CellTitre-Glo® reagent was added. Cell lysis was performed by vigorously shaking the plate for 5 min. To stabilize the luminescent signal, the plate was incubated in the dark at RT for another 30 min before luminescence was recorded on a plate reader. The cell viability of treated samples was normalised to the untreated controls.
The cytotoxicity studies in spheroids were conducted using the CellTiter-Glo® 3D Cell viability assay (Promega) following the instructions of the manufacturer.

[3] = IE-8 2.0 μM 1 h, then oxaliplatin 0.1 μM 96 h
[4] = IE-8 2.0 μM 1 h, then oxaliplatin 1.0 μM 96 h
[5] = IE-8 2.0 μM 1 h, then oxaliplatin 10.0 μM 96 h
[6] = IE-8 2.0 μM 1 h, then oxaliplatin 20.0 μM 96 h
[7] = IE-8 2.0 μM 1 h, then oxaliplatin 40.0 μM 96 h
[8] = IE-8 2.0 μM 1 h, then oxaliplatin 60.0 μM 96 h
[9] = IE-8 2.0 μM 1 h, then oxaliplatin 80.0 μM 96 h
[10] = IE-8 2.0 μM 1 h, then oxaliplatin 100.0 μM 96 h
[11] = IE-8 2.0 μM 1 h, then oxaliplatin 200.0 μM 96 h
[12] = IE-8 2.5 μM 1 h, then oxaliplatin 0.1 μM 96 h
[13] = IE-8 2.5 μM 1 h, then oxaliplatin 1.0 μM 96 h
[14] = IE-8 2.5 μM 1 h, then oxaliplatin 10.0 μM 96 h
[15] = IE-8 2.5 μM 1 h, then oxaliplatin 20.0 μM 96 h
[16] = IE-8 2.5 μM 1 h, then oxaliplatin 40.0 μM 96 h
[17] = IE-8 2.5 μM 1 h, then oxaliplatin 60.0 μM 96 h
[18] = IE-8 2.5 μM 1 h, then oxaliplatin 80.0 μM 96 h
[19] = IE-8 2.5 μM 1 h, then oxaliplatin 100.0 μM 96 h
[20] = IE-8 2.5 μM 1 h, then oxaliplatin 200.0 μM 96 h
[21] = IE-8 3.0 μM 1 h, then oxaliplatin 0.1 μM 96 h
[22] = IE-8 3.0 μM 1 h, then oxaliplatin 1.0 μM 96 h
[23] = IE-8 3.0 μM 1 h, then oxaliplatin 10.0 μM 96 h
[24] = IE-8 3.0 μM 1 h, then oxaliplatin 20.0 μM 96 h
[25] = IE-8 3.0 μM 1 h, then oxaliplatin 40.0 μM 96 h
[26] = IE-8 3.0 μM 1 h, then oxaliplatin 60.0 μM 96 h
[27] = IE-8 3.0 μM 1 h, then oxaliplatin 80.0 μM 96 h
[28] = IE-8 3.0 μM 1 h, then oxaliplatin 100.0 μM 96 h
[29] = IE-8 3.0 μM 1 h, then oxaliplatin 200.0 μM 96 h
[30] = oxaliplatin 1.0 μM 1 h, 3 h later IE-8 1.0 μM until 96 h
[31] = oxaliplatin 10.0 μM 1 h, 3 h later IE-8 1.0 μM until 96 h
[32] = oxaliplatin 20.0 μM 1 h, 3 h later IE-8 1.0 μM until 96 h
[33] = oxaliplatin 40.0 μM 1 h, 3 h later IE-8 1.0 μM until 96 h
[34] = oxaliplatin 60.0 μM 1 h, 3 h later IE-8 1.0 μM until 96 h
[35] = oxaliplatin 80.0 μM 1 h, 3 h later IE-8 1.0 μM until 96 h
[36] = oxaliplatin 200.0 μM 1 h, 3 h later IE-8 1.0 μM until 96 h
[37] = oxaliplatin 400.0 μM 1 h, 3 h later IE-8 1.0 μM until 96 h

With “3,5-Di(3,4,5-trimethoxybenzylidene)-1-phenylpiperidin-4-one [IE-8]” the “persistence of pStat3 inhibition post treatment” value (pStat3^Tyr705) was “at least 24 h”, the “inhibition of Stat3 tyrosine (705) phosphorylation (pStat3)” value (pStat3^Tyr705) was “efficiently inhibits” and the “concentrations at which pSTAT3 is inhibited” value (pStat3^Tyr705; 18 h) was greater than 1 μM. For the same compound, the “CI values in combination with oxaliplatin” value [1] was less than 1 and the IC50 [2] was 8.5 µM.

`COc1cc(/C=C2\CN(c3ccccc3)C/C(=C\c3cc(OC)c(OC)c(OC)c3)C2=O)cc(OC)c1OC` [IE-8, 3,5-Di(3,4,5-trimethoxybenzylidene)-1-phenylpiperidin-4-one] was tested, and the “inhibition of IL-6 induced pStat3” value (pStat3^Tyr705; A2780-cisplatin resistant cells, 18 h) was “the most potent inhibitor in this series; also recorded: efficiently inhibited”, the “pStat3 inhibition after acute treatment” value (pStat3^Tyr705; DU145, 5 μM, 1 h) was “sufficient to inhibit pStat3” and the “persistence of pStat3 inhibition post treatment” value (pStat3^Tyr705) was “at least 24 h”. The “inhibition of Stat3 tyrosine (705) phosphorylation (pStat3)” value (pStat3^Tyr705) was “inhibits pStat3^Tyr705 levels without affecting the total Stat3 levels; also recorded: efficiently inhibited”, the “inhibition of constitutively active Stat3 (pStat3)” value (pStat3^Tyr705; HCT116-oxaliplatin resistant cells, 18 h) was “the most potent among these inhibitors; also recorded: efficiently inhibited the constitutively active Stat3” and the “pStat3 inhibition in 3D spheroids” value (pStat3^Tyr705; HCT116-oxaliplatin resistant or A2780-cisplatin resistant spheroids) was “inhibition of pStat3; also recorded: efficiently inhibited”. For the same compound, the “concentrations at which pSTAT3 is inhibited” value (pStat3^Tyr705; 18 h) was greater than 1 μM, the CI-value [1, 3] was 1.558 and the Effect [1, 3] was 0.1065. The CI-value [1, 4] was 1.979, the Effect [1, 4] was 0.0954 and the CI-value [1, 5] was 2.754. The Effect [1, 5] was 0.1575, the CI-value [1, 6] was 1.58 and the Effect [1, 6] was 0.315. The CI-value [1, 7] was 1.172, the Effect [1, 7] was 0.4676 and the CI-value [1, 8] was 1.135. For the same compound, the Effect [1, 8] was 0.5256, the CI-value [1, 9] was 0.827 and the Effect [1, 9] was 0.6386. It also gave a CI-value [1, 10] of 0.7749, an Effect [1, 10] of 0.678 and a CI-value [1, 11] of 0.4016. The Effect [1, 11] was 0.8582, the CI-value [1, 12] was 0.721 and the Effect [1, 12] was 0.5165. It also gave a CI-value [1, 13] of 1.405, an Effect [1, 13] of 0.2143 and a CI-value [1, 14] of 1.985. It also gave an Effect [1, 14] of 0.231, a CI-value [1, 15] of 1.805 and an Effect [1, 15] of 0.313. For the same compound, the CI-value [1, 16] was 0.8326, the Effect [1, 16] was 0.6087 and the CI-value [1, 17] was 0.8009. For the same compound, the Effect [1, 17] was 0.6559, the CI-value [1, 18] was 0.5921 and the Effect [1, 18] was 0.76. The CI-value [1, 19] was 0.7993, the Effect [1, 19] was 0.7021 and the CI-value [1, 20] was 0.4777. For the same compound, the Effect [1, 20] was 0.855, the CI-value [1, 21] was 0.8489 and the Effect [1, 21] was 0.527. It also gave a CI-value [1, 22] of 1.924, an Effect [1, 22] of 0.171 and a CI-value [1, 23] of 1.573. The Effect [1, 23] was 0.3259, the CI-value [1, 24] was 1.453 and the Effect [1, 24] was 0.4064. The CI-value [1, 25] was 0.7871, the Effect [1, 25] was 0.6743 and the CI-value [1, 26] was 0.8214. For the same compound, the Effect [1, 26] was 0.6878, the CI-value [1, 27] was 0.5584 and the Effect [1, 27] was 0.8108. The CI-value [1, 28] was 0.48, the Effect [1, 28] was 0.8527 and the CI-value [1, 29] was 0.4763. The Effect [1, 29] was 0.877, the “CI values in combination with oxaliplatin” value [1] was less than 1 and the CI-value [1, 30] was 5.476. The Effect [1, 30] was 0.2692, the CI-value [1, 31] was 1.482 and the Effect [1, 31] was 0.6799. The CI-value [1, 32] was 0.9954, the Effect [1, 32] was 0.7838 and the CI-value [1, 33] was 0.5439. For the same compound, the Effect [1, 33] was 0.8908, the CI-value [1, 34] was 0.5183 and the Effect [1, 34] was 0.897. For the same compound, the CI-value [1, 35] was 0.4279, the Effect [1, 35] was 0.9184 and the CI-value [1, 36] was 0.3786. For the same compound, the Effect [1, 36] was 0.93, the CI-value [1, 37] was 0.488 and the Effect [1, 37] was 0.9045. The IC50 [2] was 8.5 µM.
